Assay results reported in US6737383B1, “Herbicidal oxadiazolidines” (priority 1999, dated 2004).

Legend:
blackgrass = assay: Test B pre/postemergence blackgrass; format: in vivo, Alopecurus myosuroides
Procedure, shortened: (§1)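 Test chemicals in a non-phytotoxic solvent mixture with surfactant were sprayed preemergence onto planted seeds and postemergence onto plants 2 to 18 cm tall (1- to 4-leaf stage). After twelve to sixteen days in a greenhouse, injury was visually rated against untreated controls from 0 (no effect) to 10 (complete control).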

surinam grass = assay: Test B pre/postemergence surinam grass; format: in vivo, Brachiaria decumbens
Procedure, shortened: as §1

cocklebur = assay: Test B pre/postemergence cocklebur; format: in vivo, Xanthium strumarium
Procedure, shortened: as §1

corn = assay: Test B pre/postemergence corn; format: in vivo, Zea mays
Procedure, shortened: as §1

crabgrass = assay: Test B pre/postemergence crabgrass; format: in vivo, Digitaria sanguinalis
Procedure, shortened: as §1

giant foxtail = assay: Test B pre/postemergence giant foxtail; format: in vivo, Setaria faberii
Procedure, shortened: as §1

pigweed = assay: Test B pre/postemergence pigweed; format: in vivo, Amaranthus retroflexus
Procedure, shortened: as §1

rape = assay: Test B pre/postemergence rape; format: in vivo, Brassica napus
Procedure, shortened: as §1

soybean = assay: Test B pre/postemergence soybean; format: in vivo, Glycine max
Procedure, shortened: as §1

sugar beet = assay: Test B pre/postemergence sugar beet; format: in vivo, Beta vulgaris
Procedure, shortened: as §1

wheat = assay: Test B pre/postemergence wheat; format: in vivo, Triticum aestivum
Procedure, shortened: as §1

purple nutsedge = assay: Test B pre/postemergence purple nutsedge; format: in vivo, Cyperus rotundus
Procedure, shortened: as §1

rice = assay: Test B flood test rice; format: in vivo, Oryza sativa
Procedure, shortened: (§2)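 Flood test on plants grown to the 2-leaf stage; treated plants kept in greenhouse twelve to sixteen days, then visually rated against controls on a 0 (no effect) to 10 (complete control) scale.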

smallflower flatsedge = assay: Test B flood test smallflower flatsedge; format: in vivo, Cyperus difformis
Procedure, shortened: as §2

duck salad = assay: Test B flood test duck salad; format: in vivo, Heteranthera limosa
Procedure, shortened: as §2

bamyardgrass = assay: Test B flood test barnyardgrass; format: in vivo, Echinochloa crus-galli
Procedure, shortened: as §2

[1] = Postemergence, Rate 62 g/ha, scale 0 to 10, 0 is no effect, 10 is complete control
[2] = Postemergence, Rate 250 g/ha, scale 0 to 10, 0 no effect, 10 complete control
[3] = Preemergence, Rate 62 g/ha, scale 0 to 10, 0 is no effect, 10 is complete control
[4] = Preemergence, Rate 125 g/ha, scale 0 to 10 (0 no effect, 10 complete control)
[5] = Preemergence, Rate 250 g/ha, scale of 0 to 10 where 0 is no effect and 10 is complete control
[6] = Preemergence, Rate 500 g/ha, scale 0 (no effect) to 10 (complete control)
[7] = Rate 125 g/ha, Postemergence, scale 0 to 10, 0 no effect, 10 complete control
[8] = Rate 500 g/ha, Postemergence, scale 0 to 10, 0 no effect, 10 complete control
[9] = Rate 125 g/ha, Postemergence section (flood test species), scale 0 to 10, 0 no effect, 10 complete control
[10] = Rate 500 g/ha, listed under Postemergence (flood test species), scale 0 to 10, 0 no effect, 10 complete control
[11] = flood test, listed under Postemergence, Rate 250 g/ha, scale 0 to 10, 0 no effect, 10 complete control

Cc1ccccc1-n1c(=O)on(C(=O)N(c2ccc(F)c(F)c2)C(C)C)c1=O [Compound 48]
Blackgrass plant response rating (blackgrass; [1]): 0
Blackgrass plant response rating (blackgrass; [2]): 0
Plant response rating, Blackgrass (blackgrass; [3]): 0
Plant response rating, Blackgrass (blackgrass; [4]): 0
Plant response rating, Blackgrass (blackgrass; [5]): 2
Blackgrass plant response rating (blackgrass; [6]): 2
Blackgrass plant response rating (blackgrass; [7]): 0
Blackgrass plant response rating (blackgrass; [8]): 0
B. signalgrass plant response rating (surinam grass; [1]): 0
B. signalgrass plant response rating (surinam grass; [2]): 0
Plant response rating, B. signalgrass (surinam grass; [3]): 0
Plant response rating, B. signalgrass (surinam grass; [4]): 0
Plant response rating, B. signalgrass (surinam grass; [5]): 0
B. signalgrass plant response rating (surinam grass; [6]): 0
B. signalgrass plant response rating (surinam grass; [7]): 0
B. signalgrass plant response rating (surinam grass; Rate 500 g/ha, Postemergence, scale of 0 to 10 where 0 is no effect and 10 is complete control): 0
Cocklebur plant response rating (cocklebur; [1]): 0
Cocklebur plant response rating (cocklebur; [2]): 0
Plant response rating, Cocklebur (cocklebur; [3]): 0
Plant response rating, Cocklebur (cocklebur; [4]): 0
Plant response rating, Cocklebur (cocklebur; [5]): 0
Cocklebur plant response rating (cocklebur; [6]): 0
Cocklebur plant response rating (cocklebur; [7]): 0
Cocklebur plant response rating (cocklebur; [8]): 2
Corn plant response rating (corn; [1]): 0
Corn plant response rating (corn; [2]): 0
Plant response rating, Corn (corn; [3]): 0
Plant response rating, Corn (corn; [4]): 0
Plant response rating, Corn (corn; [5]): 0
Corn plant response rating (corn; [6]): 0
Corn plant response rating (corn; [7]): 0
Corn plant response rating (corn; [8]): 0
Crabgrass plant response rating (crabgrass; [1]): 0
Crabgrass plant response rating (crabgrass; [2]): 3
Plant response rating, Crabgrass (crabgrass; [3]): 1
Plant response rating, Crabgrass (crabgrass; [4]): 6
Plant response rating, Crabgrass (crabgrass; [5]): 7
Crabgrass plant response rating (crabgrass; [6]): 7
Crabgrass plant response rating (crabgrass; [7]): 1
Crabgrass plant response rating (crabgrass; [8]): 8
Giant foxtail plant response rating (giant foxtail; [1]): 0
Giant foxtail plant response rating (giant foxtail; [2]): 2
Plant response rating, Giant foxtail (giant foxtail; [3]): 6
Plant response rating, Giant foxtail (giant foxtail; [4]): 9
Plant response rating, Giant foxtail (giant foxtail; [5]): 10
Giant foxtail plant response rating (giant foxtail; [6]): 10
Giant foxtail plant response rating (giant foxtail; [7]): 0
Giant foxtail plant response rating (giant foxtail; [8]): 3
Redroot pigweed plant response rating (pigweed; [1]): 0
Redroot pigweed plant response rating (pigweed; [2]): 0
Plant response rating, Redroot pigweed (pigweed; [3]): 0
Plant response rating, Redroot pigweed (pigweed; [4]): 0
Plant response rating, Redroot pigweed (pigweed; [5]): 0
Redroot pigweed plant response rating (pigweed; [6]): 0
Redroot pigweed plant response rating (pigweed; [7]): 0
Redroot pigweed plant response rating (pigweed; [8]): 0
Rape plant response rating (rape; [1]): 0
Rape plant response rating (rape; [2]): 0
Plant response rating, Rape (rape; [3]): 0
Plant response rating, Rape (rape; [4]): 0
Plant response rating, Rape (rape; [5]): 0
Rape plant response rating (rape; [6]): 0
Rape plant response rating (rape; [7]): 0
Rape plant response rating (rape; [8]): 0
Soybean plant response rating (soybean; [1]): 1
Soybean plant response rating (soybean; [2]): 1
Plant response rating, Soybean (soybean; [3]): 0
Plant response rating, Soybean (soybean; [4]): 0
Plant response rating, Soybean (soybean; [5]): 0
Soybean plant response rating (soybean; [6]): 0
Soybean plant response rating (soybean; [7]): 1
Soybean plant response rating (soybean; [8]): 1
Sugarbeets plant response rating (sugar beet; [1]): 0
Sugarbeets plant response rating (sugar beet; [2]): 0
Plant response rating, Sugarbeets (sugar beet; [3]): 0
Plant response rating, Sugarbeets (sugar beet; [4]): 0
Plant response rating, Sugarbeets (sugar beet; [5]): 0
Sugarbeets plant response rating (sugar beet; [6]): 0
Sugarbeets plant response rating (sugar beet; [7]): 0
Sugarbeets plant response rating (sugar beet; [8]): 0
Wheat plant response rating (wheat; [1]): 0
Wheat plant response rating (wheat; [2]): 0
Plant response rating, Wheat (wheat; [3]): 0
Plant response rating, Wheat (wheat; [4]): 0
Plant response rating, Wheat (wheat; [5]): 0
Wheat plant response rating (wheat; [6]): 0
Wheat plant response rating (wheat; [7]): 0
Wheat plant response rating (wheat; [8]): 0
Nutsedge plant response rating (purple nutsedge; [1]): 0
Nutsedge plant response rating (purple nutsedge; [2]): 0
Plant response rating, Nutsedge (purple nutsedge; [3]): 0
Plant response rating, Nutsedge (purple nutsedge; [4]): 0
Plant response rating, Nutsedge (purple nutsedge; [5]): 0
Nutsedge plant response rating (purple nutsedge; [6]): 0
Nutsedge plant response rating (purple nutsedge; [7]): 0
Nutsedge plant response rating (purple nutsedge; [8]): 0
Rice plant response rating (rice; [1]): 0
Rice plant response rating (rice; [9]): 0
Rice plant response rating (rice; [10]): 0
Rice plant response rating (rice; [11]): 0
S. Flatsedge plant response rating (smallflower flatsedge; [1]): 0
S. Flatsedge plant response rating (smallflower flatsedge; [9]): 0
S. Flatsedge plant response rating (smallflower flatsedge; [10]): 0
S. Flatsedge plant response rating (smallflower flatsedge; [11]): 0
Ducksalad plant response rating (duck salad; [1]): 0
Ducksalad plant response rating (duck salad; [10]): 0
Ducksalad plant response rating (duck salad; [11]): 0
Barnyardgrass plant response rating (bamyardgrass; [1]): 0
Barnyardgrass plant response rating (bamyardgrass; [9]): 0
Barnyardgrass plant response rating (bamyardgrass; [10]): 0
Barnyardgrass plant response rating (bamyardgrass; [11]): 0
